In ChEMBL document CHEMBL5543174, “A Nonbactericidal Anionic Antimicrobial Peptide Provides Prophylactic and Therapeutic Efficacies against Bacterial Infections in Mice by Immunomodulatory-Antithrombotic Duality” (J Med Chem, 2024):
Activity calls are given as the source filed them. No cut-off for these calls is given here.

Assays:
Neutrophil = assay: Cytotoxicity against mouse bone marrow derived neutrophil at <= 200 ug/ml incubated for 24 hrs by CCK-8 assay; format: toxicity, cell-based; details: dose < 200 µg/ml
Peritoneal macrophage [1] = assay: Cytotoxicity against mouse Peritoneal macrophage at <= 200 ug/ml incubated for 24 hrs by CCK-8 assay; format: toxicity, cell-based; details: dose < 200 µg/ml
Erythrocyte [2] = assay: Hemolytic activity in rabbit erythrocytes at 25 to 200 ug/ml incubated for 30 mins by absorbance based analysis; format: toxicity, cell-based, Oryctolagus cuniculus; details: 0.5 h, dose 25-200 µg/ml
Erythrocyte [3] = assay: Hemolytic activity in mouse erythrocytes at 25 to 200 ug/ml incubated for 30 mins by absorbance based analysis; format: toxicity, cell-based; details: 0.5 h, dose 25-200 µg/ml
[4] = Acute toxicity in C57BL/6 mouse assessed as change in ALT level in serum at 10 mg/kg,ip administration measured after 24 hrs; format: organism-based; details: in vivo
[5] = Acute toxicity in C57BL/6 mouse assessed as change in ALT level in serum at 30 mg/kg,ip administration measured after 24 hrs; format: organism-based; details: in vivo
[6] = Acute toxicity in C57BL/6 mouse assessed as change in creatinine level in serum at 10 mg/kg,ip administration measured after 24 hrs; format: organism-based; details: in vivo
[7] = Acute toxicity in C57BL/6 mouse assessed as change in creatinine level in serum at 30 mg/kg,ip administration measured after 24 hrs; format: organism-based; details: in vivo
Staphylococcus aureus [8] = assay: Antimicrobial activity against Staphylococcus aureus ATCC 25923 assessed as reduction in microbial colony forming unit at 2 times MIC incubated for 1 to 4 hrs by time-kill kinetics based analysis; format: functional, organism-based; details: time 1-4 hrs
Escherichia coli [9] = assay: Antimicrobial activity against Escherichia coli ATCC 25922 assessed as reduction in microbial colony forming unit at 2 times MIC incubated for 1 to 4 hrs by time-kill kinetics based analysis; format: functional, organism-based; details: time 1-4 hrs
Staphylococcus aureus [10] = assay: Antimicrobial activity against Methicillin-resistant Staphylococcus aureus assessed as reduction in microbial colony forming unit at 2 times MIC incubated for 1 to 4 hrs by time-kill kinetics based analysis; format: functional, organism-based; details: time 1-4 hrs
Escherichia coli [11] = assay: Antimicrobial activity against Carbapenem-resistant Escherichia coli assessed as reduction in microbial colony forming unit at 2 times MIC incubated for 1 to 4 hrs by time-kill kinetics based analysis; format: functional, organism-based; details: time 1-4 hrs
Candida albicans [12] = assay: Antimicrobial activity against Candida albicans ATCC 2002 assessed as reduction in microbial colony forming unit at 2 times MIC incubated for 1 to 4 hrs by time-kill kinetics based analysis; format: functional, organism-based; details: time 1-4 hrs
Staphylococcus aureus [13] = assay: Antimicrobial activity against Staphylococcus aureus ATCC 25923 assessed as reduction in metabolic activity at 2 times MIC incubated for 1 to 4 hrs by CCK-8 assay; format: functional, organism-based; details: time 1-4 hrs
Escherichia coli [14] = assay: Antimicrobial activity against Escherichia coli ATCC 25922 assessed as reduction in metabolic activity at 2 times MIC incubated for 1 to 4 hrs by CCK-8 assay; format: functional, organism-based; details: time 1-4 hrs
Staphylococcus aureus [15] = assay: Antimicrobial activity against Methicillin-resistant Staphylococcus aureus assessed as reduction in metabolic activity at 2 times MIC incubated for 1 to 4 hrs by CCK-8 assay; format: functional, organism-based; details: time 1-4 hrs
Escherichia coli [16] = assay: Antimicrobial activity against Carbapenem-resistant Escherichia coli assessed as reduction in metabolic activity at 2 times MIC incubated for 1 to 4 hrs by CCK-8 assay; format: functional, organism-based; details: time 1-4 hrs
Candida albicans [17] = assay: Antimicrobial activity against Candida albicans ATCC 2002 assessed as reduction in metabolic activity at 2 times MIC incubated for 1 to 4 hrs by CCK-8 assay; format: functional, organism-based; details: time 1-4 hrs
[18] = system: Peritoneal macrophage cell; assay: Induction of phagocytosis in mouse Peritoneal macrophage cultured with Methicillin-resistant Staphylococcus aureus assessed as number of surviving engulfed bacteria at 25 ug/ml incubated for 1.5 hrs followed by bacterial exposure for 1 hr by plate counting method; format: functional; details: dose 25 µg/ml; time 2.5 hrs
[19] = system: Peritoneal macrophage cell; assay: Induction of phagocytosis in mouse Peritoneal macrophage cultured with Methicillin-resistant Staphylococcus aureus assessed as number of surviving engulfed bacteria at 50 ug/ml incubated for 1.5 hrs followed by bacterial exposure for 1 hr by plate counting method; format: functional; details: dose 50 µg/ml; time 2.5 hrs
[20] = system: Peritoneal macrophage cell; assay: Induction of phagocytosis in mouse Peritoneal macrophage cultured with Methicillin-resistant Staphylococcus aureus assessed as number of surviving engulfed bacteria at 100 ug/ml incubated for 1.5 hrs followed by bacterial exposure for 1 hr by plate counting method; format: functional; details: dose 100 µg/ml; time 2.5 hrs
Peritoneal macrophage [21] = assay: Induction of phagocytosis in mouse Peritoneal macrophage cultured with Carbapenem-resistant Escherichia coli assessed as number of surviving engulfed bacteria at 25 ug/ml incubated for 1.5 hrs followed by bacterial exposure for 1 hr by plate counting method; format: functional; details: dose 25 µg/ml; time 2.5 hrs
[22] = system: Peritoneal macrophage cell; assay: Induction of phagocytosis in mouse Peritoneal macrophage cultured with Carbapenem-resistant Escherichia coli assessed as number of surviving engulfed bacteria at 50 ug/ml incubated for 1.5 hrs followed by bacterial exposure for 1 hr by plate counting method; format: functional; details: dose 50 µg/ml; time 2.5 hrs
[23] = system: Peritoneal macrophage cell; assay: Induction of phagocytosis in mouse Peritoneal macrophage cultured with Carbapenem-resistant Escherichia coli assessed as number of surviving engulfed bacteria at 100 ug/ml incubated for 1.5 hrs followed by bacterial exposure for 1 hr by plate counting method; format: functional; details: dose 100 µg/ml; time 2.5 hrs
[24] = system: Peritoneal macrophage cell; assay: Induction of chemotaxis in mouse Peritoneal macrophage assessed as upregulation of CXCL1 production at 100 ug/ml preincubated with PTX followed by compound addition by ELISA; format: functional; details: dose 100 µg/ml
Peritoneal macrophage [25] = assay: Induction of chemotaxis in mouse Peritoneal macrophage assessed as upregulation of CXCL2 production at 100 ug/ml preincubated with PTX followed by compound addition by ELISA; format: functional; details: dose 100 µg/ml
Peritoneal macrophage [26] = assay: Induction of chemotaxis in mouse Peritoneal macrophage assessed as upregulation of MCP-1 production at 100 ug/ml preincubated with PTX followed by compound addition by ELISA; format: functional; details: dose 100 µg/ml
Mus musculus = assay: Antithrombotic activity in FeCl3-induced carotid arterial thrombosis C57BL/6 mouse model assessed as increase in blood flow by measuring time to occlusion at 10 mg/kg,SC administration observed for 30 mins by laser speckle perfusion imaging analysis; format: functional; details: 0.5 h
Platelet [27] = assay: Anti-platelet aggregation activity in human Platelet rich plasma assessed as inhibition of ADP-induced aggregation at 100 ug/ml preincubated with compound for 5 mins followed by ADP addition by platelet aggregometry relative to control; format: functional; design: scale not given: the % may be the effect or the level left; details: dose 100 µg/ml
Platelet [28] = assay: Anti-platelet aggregation activity in human Platelet rich plasma assessed as inhibition of collagen-induced aggregation at 100 ug/ml preincubated with compound for 5 mins followed by collagen addition by platelet aggregometry relative to control; format: functional; design: scale not given: the % may be the effect or the level left; details: dose 100 µg/ml
Platelet [29] = assay: Anti-platelet aggregation activity in human Platelet rich plasma assessed as inhibition of PMA-induced aggregation at 100 ug/ml preincubated with compound for 5 mins followed by PMA addition by platelet aggregometry relative to control; format: functional; design: scale not given: the % may be the effect or the level left; details: dose 100 µg/ml

CC[C@H](C)[C@H](NC(=O)[C@@H]1CSSC[C@H](NC(=O)[C@H](CCC(=O)O)NC(=O)[C@@H](NC(=O)[C@H](CCCCN)NC(=O)[C@H](Cc2c[nH]cn2)NC(=O)[C@@H](NC(=O)[C@H](CCCCN)NC(=O)[C@H](CCC(=O)O)NC(=O)[C@H](C)NC(=O)[C@H](CCC(=O)O)NC(=O)[C@H](CCC(=O)O)NC(=O)[C@H](CCC(=O)O)NC(=O)[C@H](C)N)[C@@H](C)O)[C@@H](C)O)C(=O)N[C@@H](CC(C)C)C(=O)N[C@@H](CCC(=O)O)C(=O)N1)C(=O)N[C@@H](Cc1ccccc1)C(=O)N[C@H](C(=O)N[C@@H](CC(C)C)C(=O)N[C@@H](CC(C)C)C(=O)N1CCC[C@H]1C(=O)N1CCC[C@H]1C(=O)N[C@@H](C)C(=O)O)[C@@H](C)O [listing 1 of 2 here]
Activity (Neutrophil): Non-Toxic | Activity (Peritoneal macrophage [1]): Non-Toxic | Activity (Erythrocyte [2]): Non-Toxic | Activity (Erythrocyte [3]): Non-Toxic | Activity [4]: Non-Toxic | Activity [5]: Non-Toxic | Activity [6]: Non-Toxic | Activity [7]: Non-Toxic

C[C@@H](O)[C@H]1C(=O)N2C(C(=O)O)=C(S[C@@H]3CN[C@H](C(=O)N(C)C)C3)[C@H](C)[C@H]12
Activity (Staphylococcus aureus [8]): Active | Activity (Escherichia coli [9]): Active | Activity (Staphylococcus aureus [10]): Active | Activity (Escherichia coli [11]): Active | Activity (Candida albicans [12]): Active | Activity (Staphylococcus aureus [13]): Active | Activity (Escherichia coli [14]): Active | Activity (Staphylococcus aureus [15]): Active | Activity (Escherichia coli [16]): Active | Activity (Candida albicans [17]): Active

CC[C@H](C)[C@H](NC(=O)[C@@H]1CSSC[C@H](NC(=O)[C@H](CCC(=O)O)NC(=O)[C@@H](NC(=O)[C@H](CCCCN)NC(=O)[C@H](Cc2c[nH]cn2)NC(=O)[C@@H](NC(=O)[C@H](CCCCN)NC(=O)[C@H](CCC(=O)O)NC(=O)[C@H](C)NC(=O)[C@H](CCC(=O)O)NC(=O)[C@H](CCC(=O)O)NC(=O)[C@H](CCC(=O)O)NC(=O)[C@H](C)N)[C@@H](C)O)[C@@H](C)O)C(=O)N[C@@H](CC(C)C)C(=O)N[C@@H](CCC(=O)O)C(=O)N1)C(=O)N[C@@H](Cc1ccccc1)C(=O)N[C@H](C(=O)N[C@@H](CC(C)C)C(=O)N[C@@H](CC(C)C)C(=O)N1CCC[C@H]1C(=O)N1CCC[C@H]1C(=O)N[C@@H](C)C(=O)O)[C@@H](C)O [listing 2 of 2 here]
Activity [18]: 793 | Activity [19]: 532 | Activity [20]: 244 | Activity (Peritoneal macrophage [21]): 279 | Activity [22]: 245 | Activity [23]: 234 | Activity [24]: 56.8% | Activity (Peritoneal macrophage [25]): 63.2% | Activity (Peritoneal macrophage [26]): 52.8% | Time (Mus musculus): 28.5 min | Activity (Platelet [27]): 54.2% | Activity (Platelet [28]): 57.72% | Activity (Platelet [29]): 78.01%

CC[C@H](C)[C@H](NC(=O)[C@H](CCCCN)NC(=O)[C@H](CCC(=O)O)NC(=O)[C@H](CCCCN)NC(=O)[C@H](CO)NC(=O)[C@H](CCCCN)NC(=O)[C@H](CCCNC(=N)N)NC(=O)[C@H](Cc1ccccc1)NC(=O)[C@H](Cc1ccccc1)NC(=O)[C@H](CC(=O)O)NC(=O)CNC(=O)[C@H](CC(C)C)NC(=O)[C@@H](N)CC(C)C)C(=O)NCC(=O)N[C@@H](CCCCN)C(=O)N[C@@H](CCC(=O)O)C(=O)N[C@@H](Cc1ccccc1)C(=O)N[C@@H](CCCCN)C(=O)N[C@@H](CCCNC(=N)N)C(=O)N[C@H](C(=O)N[C@H](C(=O)N[C@@H](CCC(N)=O)C(=O)N[C@@H](CCCNC(=N)N)C(=O)N[C@H](C(=O)N[C@@H](CCCCN)C(=O)N[C@@H](CC(=O)O)C(=O)N[C@@H](Cc1ccccc1)C(=O)N[C@@H](CC(C)C)C(=O)N[C@@H](CCCNC(=N)N)C(=O)N[C@@H](CC(N)=O)C(=O)N[C@@H](CC(C)C)C(=O)N[C@H](C(=O)N1CCC[C@H]1C(=O)N[C@@H](CCCNC(=N)N)C(=O)N[C@H](C(=O)N[C@@H](CCC(=O)O)C(=O)N[C@@H](CO)C(=O)O)[C@@H](C)O)C(C)C)[C@@H](C)CC)C(C)C)[C@@H](C)CC
Activity (Staphylococcus aureus [8]): Active | Activity (Escherichia coli [9]): Active | Activity (Staphylococcus aureus [10]): Active | Activity (Escherichia coli [11]): Active | Activity (Candida albicans [12]): Active | Activity (Staphylococcus aureus [13]): Active | Activity (Escherichia coli [14]): Active | Activity (Staphylococcus aureus [15]): Active | Activity (Escherichia coli [16]): Active | Activity (Candida albicans [17]): Active
